{"source": "patent US11839212B2", "about": "“Synergistic pesticidal compositions and methods for delivery of insecticidal active ingredients” (0903608 B.C. Ltd., priority 2018, dated 2023)", "key": {"Trichoplusia ni [1]": {"tested_on": "Trichoplusia ni", "experiment": "In-planta insecticidal efficacy on sprayed cabbage plants, Pylon® (chlorfenapyr) with unsaturated aliphatic acids (Colby synergy factor)", "assay_type": "in vivo", "conditions": "0.06 mg/mL aliphatic acid (salt)", "procedure": "A stock solution was prepared for trans-2-hexenoic acid (available from Sigma-Aldrich, St. […] Green cabbage plants (Brassica oleracea var. capitate, Danish Ballhead cultivar) were grown from seed (available from West Coast Seeds, Delta, BC, Canada) in potting soil for 4 weeks in a pest-free indoor growing environment. At 4 weeks of age, each cabbage plant was sprayed with 10 mL of treatment solution using a hand pump sprayer bottle, and allowed to dry. […] The treated cabbage plants were then placed in nylon isolation tents and kept in an indoor growing environment and the larvae were left to feed on the plants. In one set of cabbage plants, the larvae were left to feed for 48 hours, and then the number of surviving larvae were observed and survival rates (%) were determined. In a second separate set of cabbage plants, the larvae were left to feed for 72 hours, and then the number of surviving larvae were observed and survival rates (%) were determined. Each experiment was repeated at least 3 times. […] In accordance with the Colby Formula, the expected efficacy, E (%), of a combination treatment of compounds A and B in concentrations a and b, respectively, can be determined by evaluating: […] The existence and extent of synergy present in a combination treatment can be determined according to the Colby Formula by evaluating a Synergy Factor, SF=(Observed efficacy)/(Expected efficacy)."}, "Trichoplusia ni [2]": {"tested_on": "Trichoplusia ni", "experiment": "In-vitro insecticidal efficacy on artificial diet, spinosad (Entrust® SC) with aliphatic acids (Abbott efficacy, Colby synergy factor)", "assay_type": "in vivo", "conditions": "Entrust SC 0.034 ppm ([…] spinosad); aliphatic acid (salt) 500 ppm; after 5 days; Abbott-corrected", "procedure": "An artificial diet suitable for Trichoplusia ni (cabbage looper caterpillar) was prepared from a commercially available general purpose lepidoptera artificial diet premix (General Purpose Lepidoptera Diet available from Frontier Scientific Services, Newark, DE) mixed in agar media and then heated to liquify the media. The liquid artificial diet media was then used to fill each well of a 96-well treatment plate with 200 uL of artificial diet media, which was allowed to solidify at room temperature and stored at approximately 4 C.\nA 20 uL treatment sample of each treatment formulation was then placed on top of the solidified artificial diet media in each well of the 96 well plates and allowed to dry overnight. The following day, one neonate Trichoplusia ni (cabbage looper) larva (hatched from eggs obtained from the Natural Resource Canada insect research facility in Sault-Ste-Marie, ON, Canada) was added to each well of the plate, and their mortality rate was evaluated after 5 days, to determine the insecticidal efficacy of the Entrust® SC treatment alone, each exemplary unsaturated or saturated aliphatic acid (and salt) alone, and each combination of spinosad (as Entrust® SC) and unsaturated or saturated aliphatic acid (and salt). Each experiment contained 3 replicates.\n(§1) While for SF<1, antagonism is present and for SF=1, the efficacy of the compounds is merely additive."}, "Fusarium oxysporum": {"tested_on": "Fusarium oxysporum", "experiment": "Synergistic Growth Inhibition Assay (MIC and FIC index, 96-well, resazurin)", "assay_type": "cell-based", "conditions": "Fusarium oxysporum, Compound B alone", "method_in_brief": "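Checkerboard dilutions of pesticidal active plus C6–C10 (or C11/C12) aliphatic acid in 96-well plates; growth scored by resazurin colour change, optionally visual.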"}, "Botrytis cinerea": {"tested_on": "Botrytis cinerea", "experiment": "Synergistic Growth Inhibition Assay (MIC and FIC index, 96-well, resazurin)", "assay_type": "cell-based", "conditions": "Botrytis cinerea, 48 h, Table 58; Compound B alone; 48 hours incubation; read-out: MIC (B)", "method_in_brief": "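Checkerboard microdilution of pesticidal active ingredient combined with C6–C10 (or C11/C12) aliphatic acid against Botrytis cinerea, with growth read by resazurin colour change plus visual check. FIC index = sum of each agent's concentration in the inhibiting well divided by its MIC alone; 1 denotes additivity.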"}, "Trichoplusia ni [3]": {"tested_on": "Trichoplusia ni", "experiment": "In-planta insecticidal efficacy on sprayed cabbage plants, spinosad (Entrust® SC) with octanoic acid (Abbott efficacy, Colby synergy factor)", "assay_type": "in vivo", "conditions": "octanoic acid alone at 100 ppm; Abbott-corrected", "procedure": "Green cabbage plants (Brassica oleracea var. capitate, Danish Ballhead cultivar) were grown from seed (available from West Coast Seeds, Delta, BC, Canada) in potting soil for 4-6 weeks in a pest-free indoor growing environment. At between 4-6 weeks of age, each cabbage plant was sprayed with 20 mL of treatment solution using a pressurized CO2 sprayer, and allowed to dry.\nas §1"}}, "note": "Where two headings read alike, the source gives them in different places.", "data": [{"smiles": "CC=CC=CC(=O)[O-].[K+]", "note": "[2,4-hexadienoic acid, K-salt]", "values": [{"measurement": "Observed Efficacy (%)", "setting": "Trichoplusia ni [1]; after 48 hours", "value": 13, "unit": "%"}, {"measurement": "Observed Efficacy (%)", "setting": "Trichoplusia ni [1]; after 72 hours", "value": 0, "unit": "%"}]}, {"smiles": "CCCC=CCC(=O)O", "note": "[3-heptanoic acid]", "values": [{"measurement": "Observed Efficacy, W (%)", "setting": "Trichoplusia ni [2]", "value": 4.5, "unit": "%"}]}, {"smiles": "C/C=C/C=C/C(=O)[O-].[K+]", "note": "[(2E,4E)-2,4 hexadienoic acid, K-salt]", "values": [{"measurement": "Observed Efficacy, W (%)", "setting": "Trichoplusia ni [2]", "value": 9.1, "unit": "%"}]}, {"smiles": "CCCCCCCC(=O)[O-].[K+]", "note": "[Octanoic acid, K-salt]", "values": [{"measurement": "Observed Efficacy, W (%)", "setting": "Trichoplusia ni [2]", "value": 0, "unit": "%"}]}, {"smiles": "CCCCCCCC(=O)O", "note": "[Octanoic acid, octanoic acid]", "values": [{"measurement": "MIC", "setting": "Fusarium oxysporum; 24 h, Table 7, 24 hour incubation, read-out: MIC(B)", "value": 569, "unit": "µg/mL"}, {"measurement": "MIC", "setting": "Fusarium oxysporum; 24 h, Table 9, 24 hour incubation, read-out: MIC (B)", "value": 569, "unit": "µg/mL"}, {"measurement": "MIC", "setting": "Fusarium oxysporum; Table 8, read-out: MIC (B)", "value": 1140, "unit": "µg/mL"}, {"measurement": "MIC", "setting": "Botrytis cinerea", "value": 625, "unit": "µg/mL"}, {"measurement": "Observed Efficacy, W (%)", "setting": "Trichoplusia ni [3]", "value": 0, "unit": "%"}]}]}
